Laboratory results published in patent US20020028809A1 (SUNTORY LIMITED, priority 1999, published 2002).

target: T1, α1β1γδ subtype of nicotinic acetylcholine receptors (Rattus norvegicus, UniProt P18916+P25108+P25109+P25110); assay: Binding assays at α1β1γδ subtype of nicotinic acetylcholine receptors ([3H]-α-bungarotoxin, rat muscle extract); conditions: not given
T1 construct: Native receptor, no construct: "Triton X100 (2% w/v) was added
T1 sequence (P25108 21-457): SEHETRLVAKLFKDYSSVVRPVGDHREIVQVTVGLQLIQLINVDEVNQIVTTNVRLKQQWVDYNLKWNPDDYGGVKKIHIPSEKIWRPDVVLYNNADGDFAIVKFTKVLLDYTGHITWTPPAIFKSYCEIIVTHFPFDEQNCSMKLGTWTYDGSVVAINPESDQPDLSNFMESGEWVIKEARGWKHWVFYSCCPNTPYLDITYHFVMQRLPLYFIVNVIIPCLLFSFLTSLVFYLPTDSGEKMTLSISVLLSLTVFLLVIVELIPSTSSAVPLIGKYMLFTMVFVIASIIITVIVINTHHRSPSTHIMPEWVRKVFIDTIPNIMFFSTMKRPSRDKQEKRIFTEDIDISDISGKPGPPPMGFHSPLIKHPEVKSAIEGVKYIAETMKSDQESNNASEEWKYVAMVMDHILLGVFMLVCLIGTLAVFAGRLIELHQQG
T1 sequence (P25110 22-517): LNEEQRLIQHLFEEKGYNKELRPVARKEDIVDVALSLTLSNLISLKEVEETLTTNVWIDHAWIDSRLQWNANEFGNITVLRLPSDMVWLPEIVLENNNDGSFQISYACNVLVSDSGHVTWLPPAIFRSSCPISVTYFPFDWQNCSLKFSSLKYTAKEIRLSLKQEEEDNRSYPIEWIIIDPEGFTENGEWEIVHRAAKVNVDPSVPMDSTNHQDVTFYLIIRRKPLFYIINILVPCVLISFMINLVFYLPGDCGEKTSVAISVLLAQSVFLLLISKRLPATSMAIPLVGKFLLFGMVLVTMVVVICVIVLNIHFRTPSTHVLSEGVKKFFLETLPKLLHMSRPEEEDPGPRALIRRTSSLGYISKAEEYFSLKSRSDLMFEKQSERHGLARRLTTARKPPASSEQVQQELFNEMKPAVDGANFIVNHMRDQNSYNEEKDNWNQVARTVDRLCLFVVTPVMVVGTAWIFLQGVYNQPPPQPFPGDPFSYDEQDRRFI
T1 sequence (P25109 24-501): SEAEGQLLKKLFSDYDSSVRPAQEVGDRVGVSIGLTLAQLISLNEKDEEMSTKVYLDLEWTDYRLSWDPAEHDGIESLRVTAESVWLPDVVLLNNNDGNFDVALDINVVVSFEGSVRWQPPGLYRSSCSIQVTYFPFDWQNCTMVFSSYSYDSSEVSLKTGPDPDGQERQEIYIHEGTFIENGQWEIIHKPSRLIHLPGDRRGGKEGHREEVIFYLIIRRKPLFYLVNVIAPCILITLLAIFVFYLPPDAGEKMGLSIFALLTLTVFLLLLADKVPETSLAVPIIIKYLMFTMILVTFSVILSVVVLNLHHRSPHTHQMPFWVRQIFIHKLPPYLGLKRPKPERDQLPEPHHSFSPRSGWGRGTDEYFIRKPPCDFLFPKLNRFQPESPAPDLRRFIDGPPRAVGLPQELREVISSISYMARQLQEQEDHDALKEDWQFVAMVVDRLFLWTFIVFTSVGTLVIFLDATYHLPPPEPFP

Going from `N=c1ccccn1Cc1ccc(Cl)nc1` [Compound 7, 1-(6-chloro-3-pyridyl)methyl-2-imino-1,2-dihydropyridine] to `N=c1sccn1Cc1ccc(Cl)nc1` [Compound 8, 3-(6-chloro-3-pyridyl)methyl-2-imino-2,3-dihydrothiazole], the Ki falls from 71.2 µM to 10.2 µM (7-fold).

Molecule `N=C1SCCN1Cc1ccc(Cl)nc1` [Compound 5, 3-(6-chloro-3-pyridyl)methyl-2-iminothiazolidine] has a Ki of 7.65 µM.

same assay, conditions: rat muscle extract, [3H]-α-Bgt (1 nM); read-out: Affinities for receptors Ki α1β1γδ

For `Nc1nccn1Cc1cccnc1` [Compound 55, 2-amino-i-(3-pyridyl)methylimidazole], the Ki was 66 µM.

same assay, conditions: read-out: control % of [3H]-α-Bgt binding

Compared with `N=C1SCCN1Cc1ccc(Cl)cc1` [Compound 31, 3-(4-chlorobenzyl)-2-iminothiazolidine], `N=C1SCCN1Cc1ccnnc1` [Compound 33, 2-imino-3-(4-pyridazinyl)methylthiazolidine] is lower in remaining activity at 100 µM: 37% for the first, 15% for the second.

`N=C1SCCN1Cc1cnc(Cl)s1` [Compound 34, 3-(2-chloro-5-thiazolyl)methyl-2-iminothiazolidine] and `N=C1CCCN1Cc1ccc(Cl)nc1` [Compound 14, 1-(6-Chloro-3-pyridyl)methyl-2-iminopyrrolidine] are the same in remaining activity at 100 µM: 14% for the first, 14% for the second.

Going from `N=C1NCCN1Cc1ccc(Cl)nc1` [Compound 13, 1-(6-Chloro-3-pyridyl)methyl-2-iminoimidazolidine] to `Nc1nccn1Cc1ccc(Cl)nc1` [Compound 9, 2-amino-1-(6-chloro-3-pyridyl)methylimidazole], the remaining activity at 100 µM rises from 26% to 86%.

First: N=c1ccc(-c2ccccc2)nn1Cc1ccc(Cl)nc1 [Compound 44, 2-(6-chloro-3-pyridyl)methyl-3-imino-6-phenyl-2,3-dihydropyridazine]
Second: N=c1sccn1Cc1ccc(F)nc1 [Compound 12, 3-(6-fluoro-3-pyridyl)methyl-2-imino-2,3-dihydrothiazole]
The remaining activity at 100 µM of the first is higher: 80% for the first, 20% for the second.

Work on `N=c1sccn1Cc1ccc(Br)nc1` [Compound 11, 3-(6-bromo-3-pyridyl)methyl-2-imino-2,3-dihydrothiazole] yielded a remaining activity at 100 µM of 13%.

Going from `N=C1SCCN1Cc1ccc(Cl)cc1` [Compound 31, 3-(4-chlorobenzyl)-2-iminothiazolidine] to `N=C1SCCN1Cc1ccnnc1` [Compound 33, 2-imino-3-(4-pyridazinyl)methylthiazolidine], the remaining activity at 1000 µM falls from 10% to 1%.

Compared with `N=C1SCCN1Cc1cnc(Cl)s1` [Compound 34, 3-(2-chloro-5-thiazolyl)methyl-2-iminothiazolidine], `N=C1CCCN1Cc1ccc(Cl)nc1` [Compound 14, 1-(6-Chloro-3-pyridyl)methyl-2-iminopyrrolidine] is higher in remaining activity at 1000 µM: -1% for the first, 0% for the second.

Going from `N=C1NCCN1Cc1ccc(Cl)nc1` [Compound 13, 1-(6-Chloro-3-pyridyl)methyl-2-iminoimidazolidine] to `Nc1nccn1Cc1ccc(Cl)nc1` [Compound 9, 2-amino-1-(6-chloro-3-pyridyl)methylimidazole], the remaining activity at 1000 µM rises from 8% to 49%.

First: N=c1ccc(-c2ccccc2)nn1Cc1ccc(Cl)nc1 [Compound 44, 2-(6-chloro-3-pyridyl)methyl-3-imino-6-phenyl-2,3-dihydropyridazine]
Second: N=c1sccn1Cc1ccc(F)nc1 [Compound 12, 3-(6-fluoro-3-pyridyl)methyl-2-imino-2,3-dihydrothiazole]
The remaining activity at 1000 µM of the first is higher: 26% for the first, -2% for the second.

Molecule `N=c1sccn1Cc1ccc(Br)nc1` [Compound 11, 3-(6-bromo-3-pyridyl)methyl-2-imino-2,3-dihydrothiazole] has a remaining activity at 1000 µM of 5%.
